# In patent publication US11541022B2, “Methods and compositions for the treatment of neurological diseases and syndromes of aging” (priority 2018, dated 2023):
# Legend:
# [1] = Trial of L-Dopa with C60 and mitochondrial fusion; format: in vivo, human; conditions: one subject
# Experimental: In some embodiments, the amino acid L-Dopa is administered with a mitochondrial fusion promoter to stimulate the proliferation of SCs. In some embodiments it is used with C60 and/or with a demethylase promoter. In some embodiments it is used with glutamine. […] Treatment with L-Dopa may be combined with 5-HTP and/or SRIs for a full spectrum effect.
# [2] = system: epigenetic age (methylation patterns of gene markers from buccal cells); experiment: Epigenetic age tests in AR (Age Regression) trials of the stem cell regime; format: in vivo, human
# Text: Test subject's epigenetic age results are summarized below in the table of AR (Age Regression) trials: The second column of Table 1 reports the difference between epigenetic and chronological age; the third column reports the weeks of treatment, wherein there was at least one fusion cycle per week and generally two […] cycles initially, decreasing to the end of this period to one treatment every week or two; the fourth column reports the total elapsed time from baseline; the fifth column reports the regimes used; and the sixth column reports the nutritional cocktails. Several companies are presently offering epigenetic tests that purport to give epigenetic age that generally closely correlates with chronological age. The subject had taken a test offered by Osiris Green two months prior beginning treatment. […] This was in spite of their prior use of C60 for several years outside of the regime. […] This was far outside the expected range. […] It appears that using a demethylase promoter during stem cell stimulation produces a far more rapid decline in epigenetic age, as removing aberrant methylation is easiest during cell division. The epigenetic testing labs used—Osirus Green, TrueMe, EpiAging and Epimorphy—all used different sets of genes, yet results were within a few years for samples taken at the same time. […] It was initially hypothesized that any negative impact would be minimal if used only with mitochondrial switches, but the telomeres of rapidly dividing TACs were likely also lengthened, and this blocked TAC senescence and replacement. Since TACs divide frequently, they also experience rapid epigenetic aging, thus somatic cells derived from TACs with telomeres extended by an agonist reach higher epigenetic age that would ordinarily be possible.
# [3] = cited from earlier work; for half-life: stated in words
# [4] = mice, intraperitoneal injection; cited from earlier work
smiles,measurement,setting,value
"N[C@@H](Cc1ccc(O)c(O)c1)C(=O)O [L-Dopa, Levodopa]",tremors,[1],eliminated tremors
"CC(C)(O)[C@@H]1CC[C@](C)([C@H]2[C@@H](O)C[C@@]3(C)[C@@H]4C[C@H](O)[C@H]5C(C)(C)[C@@H](O)CC[C@@]56C[C@@]46CC[C@]23C)O1 [cycloasragenol, cycloastragenol]",effect on epigenetic age,[2]; telomere agonist every fourth treatment,did not show the same negative effects
same,effect on epigenetic age,[2]; telomere agonist with every C60/mitochondrial switches treatment,rapidly increase epigenetic age
"O=C1c2c(O)cc(O)cc2O[C@H](c2cc(O)c(O)c(O)c2)[C@H]1O [dihydromyricetin, Dihydromyricetin]",time to elimination from the body,[3]; Liu et al. 2019,about 12 hours
Oc1ccc(C=Cc2cc(O)cc(O)c2)cc1 [resveratrol],epigenetic age below chronological age,"[2]; 300 mg of resveratrol one hour before C60, one treatment per week for 8 weeks",14.6 years
CCCCCCCCCCCCCCCCCC(=O)O [stearic acid],half-life,[3],ten to twelve hours
C[S+]([O-])CCCCN=C=S (stereo not shown) [sulforaphane],time to peak in the bloodstream,[3]; in vivo,≥ 15 min
same,half-life,[3],about an hour
same,duration of activity,[4],approximately sixty minutes
same,time to maximum activity,[4],15 min
